Consider 21 compounds from paper PMC7897990, “TriTOX: A novel Trichomonas vaginalis assay platform for high-throughput screening of compound libraries” (International Journal for Parasitology: Drugs and Drug …, 2021).

Like-named read-outs stand apart in the source and are kept apart here.

Data set [1] relates to nontumorigenic neonatal foreskin fibroblast (NFF) cell line.
Data set [2] deals with Trichomonas vaginalis G3 trophozoites.
The mark [3] stands for this setting: NFF fibroblast screen at 5 µg/mL, A = active, I = inactive.
The mark [4] stands for this setting: HTS, parasite screen at 1 µg/mL, replicate 1.
Where [5] appears, read: HTS, parasite screen at 1 µg/mL, replicate 2.
Setting [6] is: NFF_NS1 screen 5 µg/mL, single concentration.
The mark [7] stands for this setting: HTS single concentration, parasite screen 1 µg/mL, replicate 1.
The mark [8] stands for this setting: HTS single concentration, parasite screen 1 µg/mL, replicate 2.
The mark [9] stands for this setting: HTS, parasite screen at 1 µg/mL, replicate 1, raw absorbance.
[10] abbreviates: HTS, parasite screen at 1 µg/mL, replicate 2, raw absorbance.
[11] abbreviates: NFF_NS1 screen at 5 µg/mL, NFF cells.
The mark [12] stands for this setting: parasite screen at 1 µg/mL, replicate 1.
Where [13] appears, read: parasite screen at 1 µg/mL, replicate 2.
Setting [14] is: replicate 1, parasite screen at 1 µg/mL.
[15] abbreviates: replicate 2, parasite screen at 1 µg/mL.

As to `CC[C@H]1C[C@@H]2CC[C@@H](O2)[C@@H](C)C(=O)O[C@H](CC)C[C@H]2CC[C@H](O2)[C@H](C)C(=O)O[C@@H](C)C[C@@H]2CC[C@@H](O2)[C@@H](C)C(=O)O[C@H](CC)C[C@H]2CC[C@H](O2)[C@H](C)C(=O)O1` [Trinactin], the NFF_Activity entry in data set [1] (setting [3]) is “I (otherwise these were reported as inactive (I))”. Besides, the T.vaginalis_%inb_Rep1 in data set [2] (setting [4]) worked out at 11.27%. The compound also had a T.vaginalis_%inb_Rep2 in data set [2] (setting [5]) of 13.47%.

Take `CC(=O)OC[C@]12CCC(C)=C[C@H]1O[C@@H]1[C@H](O)[C@@H](O)[C@@]2(C)[C@]12CO2` [BIA-A1982]: the NFF_Activity result in data set [1] (setting [6]) is listed as “A (active (A) compounds having >25% inhibitory activity)”. The T.vaginalis_%inb_Rep1 in data set [2] (setting [7]) came to 9.02%. In addition, the T.vaginalis_%inb_Rep2 in data set [2] (setting [8]) amounted to 12.13%.

Turning to `CC[C@H]1OC(=O)[C@H](C)[C@@H](O[C@H]2C[C@@](C)(OC)[C@@H](O)[C@H](C)O2)[C@H](C)[C@@H](O[C@@H]2O[C@H](C)C[C@H](N(C)C)[C@H]2O)[C@](C)(O)C[C@@H](C)C(=O)[C@H](C)[C@@H](O)[C@]1(C)O` [Erythromycin A], the NFF_Activity entry in data set [1] (NFF_NS1 screen at 5 µg/mL) is “I (otherwise these were reported as inactive (I))”. Further, the T.vaginalis_%inb_Rep1 in data set [2] (setting [4]) was 5.27%. In addition, the T.vaginalis_Absorbance_Rep1 in data set [2] (setting [9]) is 0.806. In data set [2] (setting [5]), this compound gave a T.vaginalis_%inb_Rep2 of 3.78%. In data set [2] (setting [10]), the T.vaginalis_Absorbance_Rep2 stood at 0.694.

Regarding `CS(=O)(=O)c1ccc([C@@H](O)[C@@H](CO)NC(=O)C(Cl)Cl)cc1` [BIA-T1486], the NFF_Activity entry in data set [1] (setting [11]) is “I (otherwise these were reported as inactive (I))”. In data set [2] (setting [12]), this compound came in with a T.vaginalis_%inb_Rep1 of 8.02%. The T.vaginalis_%inb_Rep2 in data set [2] (setting [13]) amounted to 12.00%.

For the compound `CO[C@H]1C[C@H](O[C@H]2[C@H](C)O[C@@H](O[C@@H]3/C(C)=C/C[C@@H]4C[C@@H](C[C@]5(C=C[C@H](C)[C@@H](C(C)C)O5)O4)OC(=O)[C@@H]4C=C(C)[C@@H](O)[C@H]5OC/C(=C\C=C\[C@@H]3C)[C@]54O)C[C@@H]2OC)O[C@@H](C)[C@H]1NC(C)=O` [Eprinomectin B1b], the NFF_Activity entry in data set [1] is “I (key: active (A) compounds having >25% inhibitory activity; otherwise these were reported as inactive (I))”. In data set [2], this compound gave a T.vaginalis_%inb_Rep1 of 14.00%, a T.vaginalis_%inb_Rep2 of 14.75%, a T.vaginalis_Absorbance_Rep1 of 0.969 and a T.vaginalis_Absorbance_Rep2 of 0.824.

Turning to `CCCCCCCCCCCC[C@@H](C(=O)O)[C@H](C)C(=O)O` [BIA-R1904], the NFF_Activity result in data set [1] (setting [11]) was “I (otherwise these were reported as inactive (I))”. In data set [2] (setting [12]), the T.vaginalis_%inb_Rep1 was found to be 13.79%. In data set [2] (setting [13]), the T.vaginalis_%inb_Rep2 is 5.71%.

As to `CC=CC(C)=CC(C)C(=O)CC(O)CC1CC(=O)NC(=O)C1` (centres unmarked) [BIA-M1404], in data set [1] (setting [6]), the NFF_Activity result is “I (otherwise these were reported as inactive (I))”. Also, in data set [2] (setting [7]), the T.vaginalis_%inb_Rep1 is reported as 18.76%. This compound registered a T.vaginalis_%inb_Rep2 in data set [2] (setting [8]) of 13.41%.

Take `COc1ccc(C[C@H]2NC[C@H](O)[C@H]2OC(C)=O)cc1` [BIA-A1215]: in data set [1] (setting [6]), the NFF_Activity entry is “I (otherwise these were reported as inactive (I))”. In data set [2] (setting [7]), the T.vaginalis_%inb_Rep1 was found to be 63.76%. This compound also gave a T.vaginalis_%inb_Rep2 in data set [2] (setting [8]) of 97.54%.

Consider `CN=C1NC(=O)[C@H]([C@H](C)c2c[nH]c3ccccc23)O1` [BIA-I1040], for which, in data set [1] (NFF cells, screen at 5 µg/mL), the NFF_Activity result is “I (otherwise these were reported as inactive (I))”. This compound came in with a T.vaginalis_%inb_Rep1 in data set [2] (setting [14]) of 25.76%. Moreover, the T.vaginalis_%inb_Rep2 in data set [2] (setting [15]) is recorded as 5.58%.

For the compound `CN[C@@H]1C[C@H]2O[C@@](C)([C@@H]1OC)n1c3ccccc3c3c4c(c5c6ccccc6n2c5c31)C(=O)N[C@H]4O` [UCN-01], the NFF_Activity entry in data set [1] (setting [3]) is given as “A (active (A) compounds having >25% inhibitory activity)”. Besides, in data set [2] (setting [4]), the T.vaginalis_%inb_Rep1 turned out to be 11.33%. The compound also displayed a T.vaginalis_%inb_Rep2 in data set [2] (setting [5]) of 13.65%.

`CC(=O)OC[C@]12C[C@H](OC(=O)CC(C)C)C(C)=C[C@H]1O[C@@H]1[C@H](O)[C@@H](OC(C)=O)[C@@]2(C)[C@]12CO2` [BIA-T1933]: in data set [1] (setting [11]), the NFF_Activity entry is “I (otherwise these were reported as inactive (I))”. This compound gave a T.vaginalis_%inb_Rep1 in data set [2] (setting [12]) of 5.61%. Also, in data set [2] (setting [13]), the T.vaginalis_%inb_Rep2 is given as 2.80%.

With `O=c1cc(CO)occ1O` [BIA-K1696], the NFF_Activity result in data set [1] (NFF cells, screen at 5 µg/mL) was “I (otherwise these were reported as inactive (I))”. In data set [2] (setting [14]), this compound had a T.vaginalis_%inb_Rep1 of 13.34%. In addition, in data set [2] (setting [15]), the T.vaginalis_%inb_Rep2 was determined as 13.98%.

With `C/C=C/[C@@H]1C=C[C@@H]2C[C@H](C)CC[C@H]2[C@]1(C)/C(O)=C1/C(=O)[C@@H](CO)N(C)C1=O` [Epiequisetin], in data set [1] (NFF_NS1 screen at 5 µg/mL), the NFF_Activity entry is “I (otherwise these were reported as inactive (I))”. Moreover, the T.vaginalis_%inb_Rep1 in data set [2] (setting [4]) was found to be 11.85%. Besides, in data set [2] (setting [9]), the T.vaginalis_Absorbance_Rep1 was determined as 0.929. For the same compound, the T.vaginalis_%inb_Rep2 in data set [2] (setting [5]) came out at 4.34%. Besides, the T.vaginalis_Absorbance_Rep2 in data set [2] (setting [10]) is 0.68.

Turning to `CCCCCc1c2c(cc(O)c1C(=O)O)OC(=O)c1c(cc(OC)cc1C(=O)CCCC)O2` [BIA-L1671], in data set [1] (NFF cells, screen at 5 µg/mL), the NFF_Activity result was “I (otherwise these were reported as inactive (I))”. Moreover, the T.vaginalis_%inb_Rep1 in data set [2] (setting [14]) worked out at 10.45%. The same compound had a T.vaginalis_%inb_Rep2 in data set [2] (setting [15]) of 14.37%.

`O=C1CCC[C@@H]2[C@H]3C[C@@H](CN12)[C@@H]1CCCCN1C3` [BIA-L1951]: in data set [1] (NFF cells, screen at 5 µg/mL), the NFF_Activity entry is “I (otherwise these were reported as inactive (I))”. Besides, the T.vaginalis_%inb_Rep1 in data set [2] (setting [14]) was 8.91%. In data set [2] (setting [15]), this compound yielded a T.vaginalis_%inb_Rep2 of 11.70%.

On to `CC(=O)O[C@@H]1[C@@H]2O[C@H]2[C@@](C)(O)C(=O)[C@@H](C)C/C=C\[C@H]2[C@H](O)C(C)=C(C)[C@H]3[C@H](Cc4ccccc4)NC(=O)[C@@]123` [Epoxycytochalasin C, 19,20-], for which the NFF_Activity result in data set [1] (NFF_NS1 screen at 5 µg/mL) is “I (otherwise these were reported as inactive (I))”. The compound also registered a T.vaginalis_%inb_Rep1 in data set [2] (setting [4]) of 12.33%. In addition, in data set [2] (setting [9]), the T.vaginalis_Absorbance_Rep1 is reported as 0.938. Further, the T.vaginalis_%inb_Rep2 in data set [2] (setting [5]) worked out at 16.20%. In data set [2] (setting [10]), the T.vaginalis_Absorbance_Rep2 is 0.844.

`COC1=C(N)C(=O)c2nc(-c3nc(C(=O)O)c(C)c(-c4cccc(OC)c4O)c3N)ccc2C1=O` [BIA-S1088]: the NFF_Activity result in data set [1] (setting [6]) is recorded as “A (active (A) compounds having >25% inhibitory activity)”. The T.vaginalis_%inb_Rep1 in data set [2] (setting [7]) is given as 77.76%. Also, in data set [2] (setting [8]), the T.vaginalis_%inb_Rep2 came out at 92.91%.

Turning to `Cc1cc(OC(=O)c2c(C)cc(O)cc2O)cc(O)c1C(=O)O` [BIA-L1669], in data set [1] (NFF cells, screen at 5 µg/mL), the NFF_Activity result is “I (otherwise these were reported as inactive (I))”. In addition, the T.vaginalis_%inb_Rep1 in data set [2] (setting [14]) is given as 11.51%. Also, in data set [2] (setting [15]), the T.vaginalis_%inb_Rep2 came out at 3.53%.

Turning to `O=C(O)c1nccc2c1[nH]c1ccccc12` [BIA-F1943], the NFF_Activity entry in data set [1] (setting [6]) is “I (otherwise these were reported as inactive (I))”. Besides, the T.vaginalis_%inb_Rep1 in data set [2] (setting [7]) stood at 8.34%. Besides, in data set [2] (setting [8]), the T.vaginalis_%inb_Rep2 is listed as 10.54%.

As for `CC(C)[C@@H]1OC(=O)[C@@H](Cc2ccccc2)N(C)C(=O)[C@H](C(C)C)OC(=O)[C@@H](Cc2ccccc2)N(C)C(=O)[C@H](C(C)C)OC(=O)[C@@H](Cc2ccccc2)N(C)C1=O` [BIA-B1238], the NFF_Activity entry in data set [1] (setting [6]) is “I (otherwise these were reported as inactive (I))”. The compound further showed a T.vaginalis_%inb_Rep1 in data set [2] (setting [7]) of 16.21%. This compound also had a T.vaginalis_%inb_Rep2 in data set [2] (setting [8]) of 4.70%.

Take `CCC(C=CC1OC(=O)C=CC1C)=CC(C)CC=CC(C)=CC(C)C(=O)C(C)C(O)C(C)CC(C)=CC(=O)O` (centres unmarked) [BIA-L1046]: the NFF_Activity result in data set [1] (NFF cells, screen at 5 µg/mL) is listed as “A (active (A) compounds having >25% inhibitory activity)”. In data set [2] (setting [14]), this compound registered a T.vaginalis_%inb_Rep1 of 99.95%. Further, the T.vaginalis_%inb_Rep2 in data set [2] (setting [15]) was 96.86%.
